Measurements as given in patent US10907099B2, “Compound, composition, cured object, optically anisotropic body, and reflective film” (FUJIFILM Corporation, priority 2016, dated 2021).

Experiments:
[1] = Measurement of light fastness (residual rate after ultraviolet irradiation); format: physicochemical; conditions: for Evaluation of light fastness: 5 mg in acetonitrile 20 ml, 1 cm quartz cell, ultraviolet light 3 J/cm^2, residual rate by liquid chromatography; for light fastness (in words): based on the results in Table 1
Protocol: Each (5 mg) of the compounds was dissolved in acetonitrile (20 ml), sealed in a 1 cm quartz cell, and the quartz cell was irradiated with ultraviolet light under a condition of 3 J/cm^2 using EXECURE 3000-W manufactured by HOYA-SCHOTT CORPORATION, so that a residual rate of each compound was measured. Amounts (masses) of each compound before and after light irradiation were calculated using liquid chromatography. In the table, “A” represents a residual rate of equal to or greater than 80%, “B” represents a residual rate of equal to or greater than 50% and less than 80%, and “C” represents a residual rate of less than 50%.

[2] = Solubility measurement in ethyl methyl ketone; format: physicochemical; conditions: concentration (% by mass) of compound completely dissolved in ethyl methyl ketone
Protocol: Ethyl methyl ketone was added dropwise to each of the compounds, and a concentration (% by mass) of the compound in the obtained ethyl methyl ketone solution in a case where the compound was completely dissolved in the solution was measured as “solubility”. It is intended that a higher numerical value of solubility indicates excellent solubility in ethyl methyl ketone.

SMILES	Evaluation of light fastness [1]	light fastness (in words) [1]	Solubility (MEK) [2] [%]
C=CC(=O)OCCCCCCOc1ccc(C(=O)Oc2ccc(C#Cc3ccc(CCCCCCC)cc3)cc2)cc1 [Comparative Compound b-1, reference compound]	C (residual rate of less than 50%)	does not satisfy the desired requirement for light fastness	–
C=CC(=O)OCCCCOc1ccc(C#Cc2ccc(NC(=O)C(=O)Nc3ccc(C#Cc4ccc(OCCCCOC(=O)C=C)cc4)cc3C(F)(F)F)c(C(F)(F)F)c2)cc1 [Compound a-1]	A (residual rate of equal to or greater than 80%)	excellent in light fastness	2
C=CC(=O)OCCCCOc1ccc(C#Cc2cc(C)c(NC(=O)C(=O)Nc3ccc(C#Cc4ccc(OCCCCOC(=O)C=C)cc4)cc3C(F)(F)F)c(C)c2)cc1 [Compound a-2]	A (residual rate of equal to or greater than 80%)	excellent in light fastness	14
